Measurements as given in patent US20170165317A1, “METHOD FOR MITIGATING OR ALLEVIATING SYNAPTIC AND COGNITIVE DEFICITS” (Trustees of Dartmouth College, priority 2013, published 2017).
Square brackets hold non-standard residues; d marks the D form. Peptide text beside a SMILES is read from it. * marks the point of attachment. ξ: configuration not given here. Myristoyl = CCCCCCCCCCCCCC(=O)*; dThr(3ξ) = CC(O)[C@@H](N)C(=O)O; Ile(3ξ) = CCC(C)[C@H](N)C(=O)O

Assays:
[1] = tested on: APP/PS1 mice; experiment: Novel object location task after i.c.v. infusion by osmotic minipump; format: in vivo, mouse; details: APP/PS1 mice, peptide 2 mM in pump, i.c.v. 3-4 weeks; p=0.027 vs vehicle-infused APP/PS1; recognition index similar to wild-type
Procedure: APP/PS1 and wild-type mice were anesthetized with isofluorane, and i.c.v. delivery cannulas (brain alzet kit III) were implanted with a stereotaxic frame (KOPF Instruments) at the following coordinates according to the bregma: AP, −0.5 mm; ML, 1 mm; and DV, −2.2 mm. Osmotic minipumps (Alzet) were filled with artificial cerebrospinal fluid (aCSF) with or without PTEN inhibitor VO-OHpic (2.5 μM) and equilibrated in 0.9% NaCl at 37° C. for 48 hours. They were attached to the i.c.v. cannula tubing and subcutaneously implanted at the back. After 21 days, behavioral testing was started as described herein. One month after implantation, mice were sacrificed and the brains were sliced stained with Nissl to verify the location of the cannula. Animal manipulation and data analysis was carried out blind with respect to genotype and treatment.
Novel-Object Location. This assay was chosen because it is not intrinsically stressful. This factor, in mice, crucially affects cognitive performance in other spatial learning paradigms (e.g., Morris water maze). The memory tests were composed of three phases—“habituation”, “sample” and “choice” trials. Mice were first habituated individually to an empty open-field box (35×35×15 high cm) for 30 minutes. A sample trial (object exposure) consisted of placing a mouse into the test box which contained two identical objects. […] A recognition index was calculated by dividing the total time spent exploring the displaced object by the total time spent exploring both objects during the test session. […]
It was posited that if early Aβ-induced cognitive impairment results from a general synaptic bias toward LTD events (Selkoe (2002) Science 298:789-791), dampening this form of synaptic plasticity might prevent cognitive decay. Therefore, it was determined whether in vivo inhibition of PTEN, a lipid phosphatase that is involved in LTD (Jurado, et al. (2010) EMBO J. 29:2827-2840), would rescue cognitive deficits in APP/PS1 mice. […]

[2] = tested on: hippocampal CA3 and CA1 cells from acute slices; experiment: fEPSP input-output curve (basal synaptic transmission) in acute hippocampal slices exposed to protofibrillar Aβ42; format: cell-based, mice; details: for basal synaptic transmission in the absence of Aβ treatment: peptide alone; for Aβ-induced synaptic depression: slices preincubated with peptide 1 hour before synthetic protofibrillar Aβ
Procedure: Mice were anesthetized with sodium pentothal (20 mg/kg ip) and decapitated. The brain was rapidly removed to ice-cold, oxygenated, dissection solution. Coronal slices (300 μm) were made with a vibratome (LEICA VT1200S) and slices were moved to a recovery chamber containing aCSF at room temperature for at least 1.5 hour before recording.
(§1) A concentric bipolar platinum-iridium stimulation electrode and a low-resistance glass recording microelectrode filled with aCSF (3-4 MΩ resistance) were placed in CA1 stratum radiatum to record the extracellular field excitatory postsynaptic potentials (fEPSPs). For each slice, an input-output curve was recorded to compare basal synaptic transmission at different conditions. This curve was also used to set the baseline fEPSP at ≈30% (for LTP experiments) or ≈50% (for LTD experiments) of maximal slope. Baseline stimulation was delivered every 15 seconds (0.01 ms duration pulses) for at least 20 minutes before beginning the experiment to ensure stability of the response. LTP was induced by using θ-burst stimulation (4 pulses at 100 Hz, with the bursts repeated at 5 Hz and each tetanus including three 10-burst trains separated by 15 seconds). LTD was induced using 900 pulses at 1 Hz. Responses were recorded for 1 hour after induction of LTP or LTD.
Dissection solution (employed for slicing) composition: 10 mM D-glucose, 4 mM KCl, 26 mM NaHCO3, 233.7 mM sucrose, 5 mM MgCl2, 1:1000 Phenol Red. Artificial CSF (employed for recovery and recording) composition: 119 mM NaCl, 2.5 mM KCl, 1 mM NaH2PO4, 11 mM glucose, 1.2 mM MgCl2, 2.5 mM CaCl2. Osmolarity was adjusted to […].
For the first approach, protofibrillar Aβ was prepared by promoting aggregation under high-salt conditions (258 μM Aβ42, room temperature incubation (Jan, et al. (2010) Nat. Protoc. 5:1186-1209). The kinetics of Aβ42 aggregation were followed by thioflavin T fluorescence and SDS-PAGE western blot analysis with the N-terminal anti-Aβ antibody 6E10. Also, the heterogeneous nature of these Aβ42 assemblies was evidenced by electron microscopy. Synaptic function was assessed by electrophysiological recordings of field excitatory postsynaptic potential (fEPSPs) between hippocampal CA3 and CA1 cells from acute slices prepared from 5-month-old mice. The results indicated a ≈60% decrease in the magnitude of synaptic transmission (input-output curve) when slices were incubated for 2 hours in aCSF containing pathogenic protofibrillar Aβ42 species (1 μM). This decrease in the basal synaptic transmission was prevented when Aβ was added to slices that were preincubated with the PTEN inhibitor (50 nM VO-OHpic) for 1 hour (VO-OHpic and Aβ were also present in the perfusion solution during electrophysiological recordings). VO-OHpic alone had no effect on basal synaptic transmission. […] The potency and specificity of this inhibitor have been documented previously (Rosivatz, et al. (2006) ACS Chem. Biol. 1:780-790).
The effect of these peptides on Aβ-treated neurons was subsequently tested.

[3] = tested on: acute mice slices; experiment: LTD of fEPSPs in acute hippocampal slices; format: cell-based; details: peptide 10 μM, 1-2.5 hours incubation
Procedure: as §1
It was posited that the PTEN-PDZ peptide would saturate PDZ interaction sites of PTEN, consequently preventing anchoring of PTEN to PDZ proteins, and in this manner it would prevent LTD.

[4] = tested on: APPswe/lnd-expressing neurons; experiment: Paired whole-cell recording of AMPAR-mediated EPSCs in APPswe/lnd-expressing CA1 neurons of organotypic hippocampal slices; format: cell-based, rat; details: 15 nM bPV(HOpic) or 50 nM VO-OHpic during expression
Procedure: The effect of recombinant protein expression on synaptic transmission was evaluated by simultaneous double whole-cell recordings from pairs of nearby infected and uninfected CA1 neurons, under voltage clamp, while stimulating presynaptic Schaffer collateral fibers (under this configuration, recombinant proteins are expressed exclusively in the postsynaptic neuron).
The different versions of APP (APPwt, APPswe/lnd APPMV) and EGFP were co-expressed using an internal ribosomal entry site (IRES) construct. The EGFP-tagged versions of PTEN have been described (Jurado, et al. (2010) EMBO J. 29:2827-2840). All constructs were prepared in pSinRep5 for expression using Sindbis virus. Recombinant proteins were expressed in hippocampal CA1 pyramidal neurons from organotypic slice cultures. Organotypic hippocampal slices were prepared from postnatal day 5-7 rats and cultured during 6-8 days.
The external solution (aCSF) contained 119 mM NaCl, 2.5 mM KCl, 1 mM NaH2PO4, 11 mM glucose, 26 mM NaHCO3, 4 mM MgCl2, 4 mM CaCl2, 100 μM picrotoxin and 2 μM 2-chloroadenosine, pH 7.4, and was gassed with 95% O2 and 5% CO2. […] Bipolar stimulating electrodes were placed over Schaffer collateral fibers between 250 and 300 μm from the CA1 recorded cells, and synaptic responses were evoked with single voltage pulses (200 μs, up to 30 V). […]

[5] = target: T1, Aβ42 (Homo sapiens, UniProt P05067); experiment: Thioflavin-T fluorescence assay of Aβ42 aggregation; format: biochemical; details: 50 nM VO-OHpic or 15 nM bPV(HOpic), 37° C.
T1 construct: Lyophilized Aβ42 peptide was purchased from Keck Facility at Yale University; purchased Keck Facility at Yale University; host or cells: synthetic peptide
T1 sequence (P05067 672-713): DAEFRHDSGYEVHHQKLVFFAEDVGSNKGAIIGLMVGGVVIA
Procedure: Freshly prepared Aβ42 was prepared as described for protofibrillar Aβ42. The Thioflavin-T (ThT) assay was carried out at 37° C., within a dark chamber in a 96-well plate. Each well contained 100 ng/μL of Aβ42, 20 μM ThT and 50 nM VO-OHpic or 15 nM bPV(HOpic). Fluorescence (λex=450 nm; λem=485 nm) was followed over time in a FLUOSTAR OPTIMA (BMG LabTech) fluorescence spectrophotometer. Samples were run in triplicates. […] Thus, the observed rescue of basal synaptic transmission, LTP and cognition, with VO-OHpic was not likely due to an altered aggregation state of Aβ upon PTEN inhibition.

Row | SMILES | spatial learning task (novel object location, recognition index) [1] | basal synaptic transmission in the absence of Aβ treatment [2] | Aβ-induced synaptic depression [2] | Aβ-induced synaptic depression ([2]; listed as N-myristoyl-QHSQITKV) | LTD (fEPSP slope 50-60 minutes after induction) [3] | AMPAR-mediated EPSCs in APPswe/lnd-expressing neurons relative to uninfected cells [4] | Aβ42 aggregation (ThT fluorescence) [5]
1 | CCCCCCCCCCCCCC(=O)N[C@@H](CCC(N)=O)C(=O)N[C@H](Cc1c[nH]cn1)C(=O)N[C@@H](CO)C(=O)N[C@H](CCC(N)=O)C(=O)N[C@H](C(=O)N[C@@H](C(=O)N[C@@H](CCCCN)C(=O)N[C@@H](C(=O)O)C(C)C)C(C)O)C(C)CC (stereo partly shown) [PTEN-PDZ peptide, N-myristoyl-QHSQITKV] (Myristoyl-Q[dH]S[dQ][Ile(3ξ)][dThr(3ξ)]K[dV]-OH) | significant improvement | neither peptide altered basal synaptic transmission | prevented synaptic depression | blocks Aβ-induced synaptic depression | completely blocked LTD | – | –
2 | O=C1C=C/C(=C(/[O-])O)N=C1.[K+].[O-][O-].[O-][O-].[O]=[V] [bPV(HOpic)] | – | – | – | – | – | no longer depressed | does not alter Aβ42 aggregation
3 | CCCCCCCCCCCCCC(=O)N[C@@H](CO)C(=O)N[C@@H](C(=O)N[C@@H](Cc1c[nH]cn1)C(=O)N[C@@H](C(=O)N[C@H](C(=O)N[C@H](CCC(N)=O)C(=O)N[C@@H](CCCCN)C(=O)N[C@H](CCC(N)=O)C(=O)O)C(C)CC)C(C)O)C(C)C (stereo partly shown) [scrambled peptide, N-myristoyl-SVHTIQKQ] (Myristoyl-S[dV]H[dThr(3ξ)][Ile(3ξ)][dQ]K[dQ]-OH) | – | neither peptide altered basal synaptic transmission | did not | – | did not have any effect | – | –
